Like-named read-outs stand apart in the source and are kept apart here.
Assays:
Format in all cases: cell-based
[1] = test system: NCI-H23; details: NCI-H23
[2] = test system: HT29; test: In-Vitro Testing SRB panel: Colon Cancer
[3] = test system: SNB-75; test: In-Vitro Testing SRB panel: CNS Cancer; details: SNB-75
[4] = test system: CARI-1; test: In-Vitro Testing SRB panel: Renal Cancer
[5] = test system: HCT-15; test: In-Vitro Testing SRB panel: Colon Cancer; details: HCT-15
[6] = test system: SN12C; test: In-Vitro Testing SRB panel: Renal Cancer
[7] = test system: HCT-116; test: In-Vitro Testing SRB panel: Colon Cancer; details: HCT-116
[8] = test system: PC-3; test: In-Vitro Testing SRB panel: Prostate Cancer; details: PC-3
[9] = test system: RXF 393; test: In-Vitro Testing SRB panel: Renal Cancer; details: RXF 393
[10] = Homo sapiens, read-out: LC50 (the source's name)

## COc1cccc2c1C(c1ccccc1Cl)c1cc(Cl)ccc1N(C(=O)c1ccc([N+](=O)[O-])cc1)C2 (stereo not drawn) [Compound 31]
[1]; Homo sapiens
  GI50: 2.65 µM
[1]; [10]
  CC50: > 100 µM
[1]
  TGI: >1.00E−04 Molar
[1]; log10 conc -4 Molar
  Percent Growth: 19%
[1]; log10 conc -5 Molar
  Percent Growth: 33%
[1]; log10 conc -6 Molar
  Percent Growth: 62%
[1]; log10 conc -7 Molar
  Percent Growth: 92%
[1]; log10 conc -8 Molar
  Percent Growth: 96%
[2]; HI29
  TGI: >1.00E−04 Molar
[2]; HI29, log10 conc -4 Molar
  Percent Growth: 16%
[2]; HI29, log10 conc -5 Molar
  Percent Growth: 26%
[2]; HI29, log10 conc -6 Molar
  Percent Growth: 47%
[2]; HI29, log10 conc -7 Molar
  Percent Growth: 91%
[2]; HI29, log10 conc -8 Molar
  Percent Growth: 97%
[2]; Homo sapiens, HT-29
  GI50: 0.866 µM
[2]; Homo sapiens, HT-29, HI29, read-out: LC50 (the source's name)
  CC50: > 100 µM
[3]; Homo sapiens
  GI50: 5.9 µM
[3]; [10]
  CC50: > 100 µM
[3]
  TGI: 6.40E−05 Molar
[3]; log10 conc -4 Molar
  Percent Growth: −11%
[3]; log10 conc -5 Molar
  Percent Growth: 44%
[3]; log10 conc -6 Molar
  Percent Growth: 82%
[3]; log10 conc -7 Molar
  Percent Growth: 100%
[3]; log10 conc -8 Molar
  Percent Growth: 103%
[4]; CARI-1
  TGI: >1.00E−04 Molar
[4]; CARI-1, log10 conc -4 Molar
  Percent Growth: 4%
[4]; CARI-1, log10 conc -5 Molar
  Percent Growth: 37%
[4]; CARI-1, log10 conc -6 Molar
  Percent Growth: 48%
[4]; CARI-1, log10 conc -7 Molar
  Percent Growth: 80%
[4]; CARI-1, log10 conc -8 Molar
  Percent Growth: 103%
[4]; Homo sapiens
  GI50: 0.888 µM
[4]; Homo sapiens, CARI-1, read-out: LC50 (the source's name)
  CC50: > 100 µM
[5]
  TGI: >1.00E−04 Molar
[5]; log10 conc -4 Molar
  Percent Growth: 15%
[5]; log10 conc -5 Molar
  Percent Growth: 20%
[5]; log10 conc -6 Molar
  Percent Growth: 34%
[5]; log10 conc -7 Molar
  Percent Growth: 79%
[5]; log10 conc -8 Molar
  Percent Growth: 96%
[5]; Homo sapiens
  GI50: 0.444 µM
[5]; [10]
  CC50: > 100 µM
[6]
  TGI: >1.00E−04 Molar
[6]; Homo sapiens
  GI50: 6.93 µM
[6]; [10]
  CC50: > 100 µM
[6]; log10 conc -4 Molar
  Percent Growth: 30%
[6]; log10 conc -5 Molar
  Percent Growth: 43%
[6]; log10 conc -6 Molar
  Percent Growth: 85%
[6]; log10 conc -7 Molar
  Percent Growth: 101%
[6]; log10 conc -8 Molar
  Percent Growth: 94%
[7]
  TGI: 1.00E−04 Molar
[7]; log10 conc -4 Molar
  Percent Growth: 12%
[7]; log10 conc -5 Molar
  Percent Growth: 17%
[7]; log10 conc -6 Molar
  Percent Growth: 32%
[7]; log10 conc -7 Molar
  Percent Growth: 92%
[7]; log10 conc -8 Molar
  Percent Growth: 100%
[7]; Homo sapiens
  GI50: 0.502 µM
[7]; [10]
  CC50: > 100 µM
[8]; Homo sapiens
  GI50: 0.334 µM
[8]; [10]
  CC50: > 100 µM
[8]
  TGI: 7.30E−06 Molar
[8]; log10 conc -4 Molar
  Percent Growth: −26%
[8]; log10 conc -5 Molar
  Percent Growth: −6%
[8]; log10 conc -6 Molar
  Percent Growth: 35%
[8]; log10 conc -7 Molar
  Percent Growth: 66%
[8]; log10 conc -8 Molar
  Percent Growth: 91%
[9]; Homo sapiens
  GI50: 13.1 µM
[9]; [10]
  CC50: > 100 µM
[9]
  TGI: >1.00E−04 Molar
[9]; log10 conc -4 Molar
  Percent Growth: 39%
[9]; log10 conc -5 Molar
  Percent Growth: 52%
[9]; log10 conc -6 Molar
  Percent Growth: 81%
[9]; log10 conc -7 Molar
  Percent Growth: 96%
[9]; log10 conc -8 Molar
  Percent Growth: 96%

Reference: US6992079B2, “Substituted 11-phenyl-dibenzazepine compounds useful for the treatment or prevention of diseases characterized by abnormal cell proliferation” (President Fellows of Harvard College, priority 1997, dated 2006)
